The source made the active and inactive calls. The rule behind the calls is not given here.
Legend:
[1] = MRT in ICR mouse at 10 mg/kg, po by LC-MS/MS analysis; type: ADME, organism-based; settings: in vivo
[2] = test system: E3 ubiquitin-protein ligase RNF149/Epidermal growth factor receptor (Homo sapiens), P00533+Q8NC42 [UNDEFINED MUTATION]; experiment: SiHyT-mediated degrader activity at RNF149/EGFR mutant in human HCC827 cels assessed as induction of EGFR degradation at 0.1 uM cells incubated in serum-free media for 8 hrs followed by incubation with compound for 24 hrs by western blot analysis; type: cell-based
PC-9 [3] = experiment: SiHyT-mediated degrader activity at RNF149/EGFR mutant in human PC-9 cells assessed as induction of EGFR degradation by measuring decrease in EGFR level at 2 uM measured after 24 hrs by western blot analysis; type: cell-based
[4] = Tmax in ICR mouse at 10 mg/kg, po by LC-MS/MS analysis; type: ADME, organism-based; settings: in vivo
PC-9 [5] = experiment: SiHyT-mediated degrader activity at RNF149/EGFR mutant in human PC-9 cells assessed as induction of EGFR degradation by measuring EGFR expression level at 2 uM incubated for 24 hrs followed by drug wash-out and measured after 24 hrs by western blot analysis; type: cell-based
[6] = Intrinsic clearance of the compound in mouse liver microsomes at 1 uM in presence of NADPH by LC-MS/MS analysis; type: ADME, Microsome; settings: read-out: CLH
[7] = test system: E3 ubiquitin-protein ligase RNF149/Epidermal growth factor receptor (Homo sapiens), P00533+Q8NC42 [UNDEFINED MUTATION]; experiment: SiHyT-mediated degrader activity at RNF149/EGFR mutant in human HCC827 cells assessed as induction of EGFR degradation by measuring decrease in half-time of EGFR at 1 uM incubated for 6 to 24 hrs in presence of protein synthesis inhibitor, cycloheximide by western blot analysis; type: cell-based; settings: time 6-24 hrs
HCC827 = experiment: Antiproliferative activity against human HCC827 cells assessed as decrease in cell survival measured after 72 hrs by CCK-8 assay; type: functional, cell-based; settings: HCC827, 72 h
PC-9 [8] = experiment: SiHyT-mediated degrader activity at RNF149/EGFR mutant in human PC-9 cells assessed as induction of EGFR degradation by measuring decrease in EGFR level at 2 uM measured after 9 hrs by western blot analysis; type: cell-based
[9] = test system: E3 ubiquitin-protein ligase RNF149/Epidermal growth factor receptor (Homo sapiens), P00533+Q8NC42 [UNDEFINED MUTATION]; experiment: (§1) SiHyT-mediated degrader activity at RNF149/EGFR mutant in human HCC827 cells assessed as induction of EGFR degradation by measuring decrease in EGFR expression level at 1 uM pretreated with lysosome inhibitor, 3-MA for 4 hrs followed by incubation with compound for 24 hrs by western blot analysis; type: cell-based
[10] = Half life in ICR mouse at 1 mg/kg, iv by LC-MS/MS analysis; type: ADME, organism-based; settings: in vivo
PC-9 [11] = experiment: Antiproliferative activity against human PC-9 cells assessed as decrease in cell survival measured after 72 hrs by CCK-8 assay; type: functional, cell-based; settings: PC-9, 72 h
[12] = test system: E3 ubiquitin-protein ligase RNF149/Epidermal growth factor receptor (Homo sapiens), P00533+Q8NC42 [UNDEFINED MUTATION]; experiment: SiHyT-mediated degrader activity at RNF149/EGFR mutant in human HCC827 cells assessed as induction of EGFR degradation by measuring EGFR expression level at 1 uM incubated for 24 hrs followed by drug wash-out and measured after 24 hrs by western blot analysis; type: cell-based
PC-9 [13] = experiment: Induction of interaction between RNF149/EGFR mutant in human PC-9 cells assessed as disruption of EGFR mutant/HSP90 complex formation at 2 uM measured after 6 hrs by co-immunoprecipitation analysis; type: cell-based
MCF-10A = experiment: Cytotoxicity against human MCF-10A cells assessed as reduction in cell viability; type: toxicity, cell-based
[14] = test system: E3 ubiquitin-protein ligase RNF149/Epidermal growth factor receptor (Homo sapiens), P00533+Q8NC42 [UNDEFINED MUTATION]; experiment: as §1, with “proteasome” for “lysosome”, “MG-132” for “3-MA”; type: cell-based
[15] = Cmax in ICR mouse at 1 mg/kg, iv by LC-MS/MS analysis; type: ADME, organism-based; settings: in vivo
[16] = target: E3 ubiquitin-protein ligase RNF149/Epidermal growth factor receptor (Homo sapiens, UniProt P00533+Q8NC42); experiment: (§2) SiHyT-mediated degrader activity at RNF149/EGFR mutant in human HCC827 cells assessed as induction of EGFR degradation cells incubated in serum-free media for 8 hrs followed by incubation with compound for 24 hrs by western blot analysis; type: cell-based
[17] = test system: E3 ubiquitin-protein ligase RNF149/Epidermal growth factor receptor (Homo sapiens), P00533+Q8NC42 [UNDEFINED MUTATION]; experiment: as §2; type: cell-based
[18] = test system: E3 ubiquitin-protein ligase RNF149/Epidermal growth factor receptor (Homo sapiens), P00533+Q8NC42 [UNDEFINED MUTATION]; experiment: SiHyT-mediated degrader activity at […] mutant in human HCC827 cells assessed as decrease in EGFR expression level at 2 uM measured after 12 hrs by proteomics analysis; type: cell-based
[19] = Cmax in ICR mouse at 10 mg/kg, po by LC-MS/MS analysis; type: ADME, organism-based; settings: in vivo
Mus musculus = experiment: In vivo induction of EGFR mutant degradation in tumor of mouse xenografted with human PC-9 cells assessed as decrease in EGFR expression at 10 mg/kg, po measured after 6 to 48 hrs by immunoblot analysis; type: functional, organism-based; settings: time 6-48 hrs
PC-9 [20] = experiment: SiHyT-mediated degrader activity at RNF149/EGFR mutant in human PC-9 cells assessed as induction of EGFR degradation by measuring decrease in half-time of EGFR at 2 uM incubated for 6 to 24 hrs in presence of protein synthesis inhibitor, cycloheximide by western blot analysis; type: cell-based; settings: time 6-24 hrs
[21] = test system: E3 ubiquitin-protein ligase RNF149/Epidermal growth factor receptor (Homo sapiens), P00533+Q8NC42 [UNDEFINED MUTATION]; experiment: SiHyT-mediated degrader activity at RNF149/EGFR mutant in human HCC827 cells assessed as induction of EGFR degradation by measuring decrease in EGFR expression level at 1 uM pretreated with E1 ligase inhibitor, PYR41 for 4 hrs followed by incubation with compound for 24 hrs by western blot analysis; type: cell-based
PC-9 [22] = experiment: SiHyT-mediated degrader activity at RNF149/EGFR mutant in human PC-9 cells assessed as increase in EGFR ubiquitination level at 2 uM pretreated with MG132 for 2 hrs followed by incubation with compound for 9 hrs by immunoprecipitation based western blot analysis; type: cell-based
[23] = (§3) SiHyT-mediated degrader activity at RNF149/EGFR mutant in human PC-9 cells assessed as induction of EGFR degradation cells incubated in serum-free media for 8 hrs followed by incubation with compound for 24 hrs by western blot analysis; type: cell-based
PC-9 [24] = experiment: as §3; type: cell-based
[25] = Toxicity in mouse assessed as pathological changes in heart administered for 14 days by Hematoxylin-Eosin staining based analysis; type: tissue-based; settings: in vivo, 336 h, time 14 day
[26] = Oral bioavailability in ICR mouse at 10 mg/kg by LC-MS/MS analysis; type: ADME, organism-based; settings: in vivo
[27] = test system: E3 ubiquitin-protein ligase RNF149/Epidermal growth factor receptor (Homo sapiens), P00533+Q8NC42 [UNDEFINED MUTATION]; experiment: SiHyT-mediated degrader activity at RNF149/EGFR mutant in human HCC827 cells assessed as induction of EGFR degradation at 1 uM cells incubated in serum-free media for 8 hrs followed by incubation with compound for 24 hrs by western blot analysis; type: cell-based
[28] = Toxicity in mouse assessed as pathological changes in lungs administered for 14 days by Hematoxylin-Eosin staining based analysis; settings: in vivo, 336 h, time 14 day
[29] = Toxicity in mouse assessed as pathological changes in spleen administered for 14 days by Hematoxylin-Eosin staining based analysis; type: tissue-based; settings: in vivo, 336 h, time 14 day
[30] = Toxicity in mouse assessed as pathological changes in kidneys administered for 14 days by Hematoxylin-Eosin staining based analysis; settings: in vivo, 336 h, time 14 day
[31] = Intrinsic clearance of the compound in human liver microsomes at 1 uM in presence of NADPH by LC-MS/MS analysis; type: ADME, Microsome; settings: read-out: CLH
[32] = AUC in ICR mouse at 10 mg/kg, po by LC-MS/MS analysis; type: ADME, organism-based; settings: in vivo

Chain of E3 ubiquitin-protein ligase RNF149/Epidermal growth factor receptor (Homo sapiens), P00533+Q8NC42 [UNDEFINED MUTATION] (P00533 whole entry, looked up, stated change not applied): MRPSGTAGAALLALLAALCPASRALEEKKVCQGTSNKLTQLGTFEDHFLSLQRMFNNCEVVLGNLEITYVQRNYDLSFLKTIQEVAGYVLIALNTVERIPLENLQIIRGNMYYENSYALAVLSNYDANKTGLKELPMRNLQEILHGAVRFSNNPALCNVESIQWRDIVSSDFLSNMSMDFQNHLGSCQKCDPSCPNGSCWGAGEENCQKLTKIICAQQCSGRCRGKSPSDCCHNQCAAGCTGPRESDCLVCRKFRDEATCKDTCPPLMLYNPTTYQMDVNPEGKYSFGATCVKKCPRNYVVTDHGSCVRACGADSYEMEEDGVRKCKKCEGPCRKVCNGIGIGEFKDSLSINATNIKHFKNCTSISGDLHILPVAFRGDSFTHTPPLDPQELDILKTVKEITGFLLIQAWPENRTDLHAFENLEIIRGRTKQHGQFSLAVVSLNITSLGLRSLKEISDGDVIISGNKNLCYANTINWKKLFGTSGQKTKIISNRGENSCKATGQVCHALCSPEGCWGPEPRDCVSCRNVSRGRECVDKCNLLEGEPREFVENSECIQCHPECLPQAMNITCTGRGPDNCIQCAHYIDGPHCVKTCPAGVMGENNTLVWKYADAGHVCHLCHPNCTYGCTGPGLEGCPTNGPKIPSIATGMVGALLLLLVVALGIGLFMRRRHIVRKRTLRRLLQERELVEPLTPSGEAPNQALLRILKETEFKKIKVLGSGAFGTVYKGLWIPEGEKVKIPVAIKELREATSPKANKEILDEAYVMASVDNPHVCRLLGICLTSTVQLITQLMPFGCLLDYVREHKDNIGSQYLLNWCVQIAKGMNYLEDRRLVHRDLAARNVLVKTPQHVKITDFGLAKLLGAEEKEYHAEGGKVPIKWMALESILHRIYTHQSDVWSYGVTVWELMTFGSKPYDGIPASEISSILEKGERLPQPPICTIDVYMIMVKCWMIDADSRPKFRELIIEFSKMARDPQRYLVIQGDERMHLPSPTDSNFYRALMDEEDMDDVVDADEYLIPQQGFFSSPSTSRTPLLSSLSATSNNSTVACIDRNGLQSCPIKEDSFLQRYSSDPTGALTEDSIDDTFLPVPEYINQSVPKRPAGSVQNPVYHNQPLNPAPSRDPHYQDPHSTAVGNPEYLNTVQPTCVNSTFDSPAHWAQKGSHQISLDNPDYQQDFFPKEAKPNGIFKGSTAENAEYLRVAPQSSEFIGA
Chain of E3 ubiquitin-protein ligase RNF149/Epidermal growth factor receptor (Homo sapiens), P00533+Q8NC42 [UNDEFINED MUTATION] (Q8NC42 whole entry, looked up, stated change not applied): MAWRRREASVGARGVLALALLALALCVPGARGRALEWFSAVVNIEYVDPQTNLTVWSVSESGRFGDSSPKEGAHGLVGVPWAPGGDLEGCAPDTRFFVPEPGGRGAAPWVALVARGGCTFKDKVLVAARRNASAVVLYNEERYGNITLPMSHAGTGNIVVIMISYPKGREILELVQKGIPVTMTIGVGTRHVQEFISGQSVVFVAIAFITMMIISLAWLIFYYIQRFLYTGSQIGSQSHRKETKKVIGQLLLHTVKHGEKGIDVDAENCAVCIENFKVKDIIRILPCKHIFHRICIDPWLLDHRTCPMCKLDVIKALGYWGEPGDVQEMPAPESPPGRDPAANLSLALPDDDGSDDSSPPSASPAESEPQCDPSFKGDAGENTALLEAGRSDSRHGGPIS
Chain of E3 ubiquitin-protein ligase RNF149/Epidermal growth factor receptor (P00533 whole entry, looked up, change not shown): as the sequence (P00533 whole entry, looked up, stated change not applied) above
Chain of E3 ubiquitin-protein ligase RNF149/Epidermal growth factor receptor (Q8NC42 whole entry, looked up, change not shown): as the sequence (Q8NC42 whole entry, looked up, stated change not applied) above

With `COc1cc2ncnc(Nc3ccc(F)c(Cl)c3)c2cc1OCCn1cc(CCCO[Si](c2ccccc2)(c2ccccc2)C(C)(C)C)nn1` the MRT [1] was 2.57 h, the Activity [2] was 54.6% and the Activity (PC-9 [3]) was “Active”. The Tmax [4] was 1 h, the Activity (PC-9 [5]) was “inactive” and the CLint scaled at 1 µM [6] was 21.9 mL/min/kg. The Activity [7] was “Active”, the IC50 (HCC827) was 0.07 µM and the Activity (PC-9 [8]) was “Active”. The Activity [9] was “Active”, the half-life [10] was 2.18 h and the IC50 (PC-9 [11]) was 0.34 µM. The Activity [12] was “inactive”, the Activity (PC-9 [13]) was “Active” and the Activity (MCF-10A) was “Toxic”. The Activity [14] was “inactive”, the Cmax [15] was 2210 ng/mL and the DC50 [16] was 0.75 µM. For the same compound, the Activity [17] was “Dose-dependent-effect”, the Activity [18] was “Active” and the Cmax [19] was 683 ng/mL. The Activity (Mus musculus) was “Active”, the Activity (PC-9 [20]) was “Active” and the Activity [21] was “inactive”. For the same compound, the Activity (PC-9 [22]) was “Active”, the DC50 [23] was 1.42 µM and the Activity (PC-9 [24]) was “Dose-dependent-effect”. The Activity [25] was “Non-toxic”, the bioavailability [26] was 8.67% and the Activity [27] was 87.2%. For the same compound, the Activity [28] was “Non-toxic”, the Activity [29] was “Non-toxic” and the Activity [30] was “Non-toxic”. For the same compound, the CLint scaled at 1 µM [31] was 9.3 mL/min/kg and the AUC [32] was 1876.65 ng·mL·h.

— ChEMBL document CHEMBL6074674, “Development of Novel Silicon-Based Hydrophobic Tags (SiHyT) for Targeted Proteins Degradation” (J Med Chem, 2024)
